Experimental data as given in US8709743B2, “Inhibitors of bacterial nitric oxide synthase, and related screening methods” (Massachusetts Institute of Technology, priority 2007, dated 2014).

What was measured:
[1] = target: T1, iNOS (Mus musculus, UniProt P29477); assay: Attenuation of Cu(FL5) fluorescence response by iNOS inhibitor in stimulated Raw 264.7 cells; type: cell-based, murine
T1 construct: endogenous in cells; host or cells: Raw 264.7 murine macrophage cells (ATCC), stimulated with LPS and IFN-gamma

[2] = Fluorescence response of the sensor to NO in buffered aqueous solution
[3] = tested on: SK—N—SH human neuroblastoma cells; assay: Detection of NO produced by cNOS in estradiol-stimulated SK—N—SH cells (fluorescence microscopy); type: cell-based
Description: (§1) FIG. 10 illustrates Cu(FL5) detection of NO produced by cNOS. (a) NO detection in SK—N—SH cells by Cu^II(FL5). Left to right: 25 min incubation of Cu(FL5) (1 μM) and 5, 10, 15, 25 min after co-treatment of Cu(FL5) (1 μM) and 17β-estradiol (100 nM). Images were taken with a Nikon Eclipse TS100 microscope after removing the DMEM media and washing the cells with PBS. Top: fluorescence images; bottom: phase contrast images. (b) Fluorescence intensity (F(t)/FCu(FL5)) from a was plotted against incubation time. (c) NO production with or without of L-NNA. Right: NO detection in cells after 10 min co-incubation of Cu(FL5) (1 μM) and 17β-estradiol (100 nM). Left: NO detection in cells pre-treated with L-NNA for 1 h before addition of Cu(FL5) and 17β-estradiol.
We investigated the ability of Cu(FL5) to detect NO produced in SK—N—SH human neuroblastoma cells under physiological conditions, since constitutive NO synthase (“cNOS”) in this cell line can be activated by estrogen to produce NO. […] The NO-dependent fluorescence response, monitored after simultaneous administration of 17β-estradiol (100 nM) and Cu(FL5) (1 μM) to the cells, was complete within 5 min with a 4.0±0.6-fold increase in fluorescence (FIGS. 10a and b). […]
Firstly, Cu(FL5) visualizes NO in the estradiol-stimulated neuroblastoma cells with brighter fluorescence than DAF-2 DA (o-diaminofluorescein diacetate). […]

[4] = tested on: cNOS; assay: Attenuation of Cu(FL5) fluorescence response by cNOS inhibitor in SK—N—SH cells; type: cell-based, human; conditions: SK—N—SH cells pre-treated with L-NNA for 1 h, 17β-estradiol
Description: as §1
We investigated the ability of Cu(FL5) to detect NO produced in SK—N—SH human neuroblastoma cells under physiological conditions, since constitutive NO synthase (“cNOS”) in this cell line can be activated by estrogen to produce NO. Estrogen administration leads to an increase in the cytosolic Ca(II) concentration that alters the structure of calmodulin, which in turn activates cNOS. The NO-dependent fluorescence response, monitored after simultaneous administration of 17β-estradiol (100 nM) and Cu(FL5) (1 μM) to the cells, was complete within 5 min with a 4.0±0.6-fold increase in fluorescence (FIGS. 10a and b). […]

[5] = Stability of nitrosated ligand at pH 7.0 (LC-MS); type: physicochemical; conditions: pH 7.0 buffered aqueous solution
Excerpt: High resolution MS of FL5-^14NO and FL-^15NO were also obtained, showing m/z=600.0729 for FL5-^14NO and 601.0736 for FL5-^15NO, corresponding to [FL5+NO—H+Cl]^− (calcd. m/z 600.0729 and 601.0700).

[6] = FL5 binding of Cu(II): absorption titration with CuCl2 and fluorescence quenching; conditions: 1 μM FL5 solution, 37° C.
Description: Derivatized fluorescein molecules are excellent biosensors because they excite and emit in a region of the visible spectrum that is relatively free of interference. We prepared the fluorescein-based ligand FL5 (FIG. 7) by reacting 7′-chloro-4′-fluorescein-carboxaldehyde with 8-aminoquinaldine. We generated the Cu(II) fluorescein-based NO probe Cu(FL5) (FIG. 4) in situ reacting FL5 (prepared as described below) with CuCl2 in a 1:1 ratio in buffered aqueous solution (50 mM PIPES, pH 7.0, 100 mM KCl). […] A Job's plot was constructed to evaluate the nature of the FL5:Cu(II) complex by following the UV-vis absorption spectral change at 512 nm in pH 7.0 buffered solution. A break at 0.5 indicated the formation of a 1:1 complex.
The fluorescence of a 1 μM FL5 solution was diminished by 18±3% upon introduction of an equimolar quantity of CuCl2 at 37° C. Addition of excess NO to a buffered aqueous Cu(FL5) solution led to an immediate 11.2±1.5-fold increase in fluorescence (FIG. 8). […] The lower detection limit for NO is 5 nM.

[7] = tested on: Raw 264.7 murine macrophage; assay: Detection of NO produced by iNOS in LPS and IFN-γ stimulated Raw 264.7 cells (fluorescence microscopy); type: cell-based; conditions: 12 h incubation period

T1 sequence (P29477 whole entry): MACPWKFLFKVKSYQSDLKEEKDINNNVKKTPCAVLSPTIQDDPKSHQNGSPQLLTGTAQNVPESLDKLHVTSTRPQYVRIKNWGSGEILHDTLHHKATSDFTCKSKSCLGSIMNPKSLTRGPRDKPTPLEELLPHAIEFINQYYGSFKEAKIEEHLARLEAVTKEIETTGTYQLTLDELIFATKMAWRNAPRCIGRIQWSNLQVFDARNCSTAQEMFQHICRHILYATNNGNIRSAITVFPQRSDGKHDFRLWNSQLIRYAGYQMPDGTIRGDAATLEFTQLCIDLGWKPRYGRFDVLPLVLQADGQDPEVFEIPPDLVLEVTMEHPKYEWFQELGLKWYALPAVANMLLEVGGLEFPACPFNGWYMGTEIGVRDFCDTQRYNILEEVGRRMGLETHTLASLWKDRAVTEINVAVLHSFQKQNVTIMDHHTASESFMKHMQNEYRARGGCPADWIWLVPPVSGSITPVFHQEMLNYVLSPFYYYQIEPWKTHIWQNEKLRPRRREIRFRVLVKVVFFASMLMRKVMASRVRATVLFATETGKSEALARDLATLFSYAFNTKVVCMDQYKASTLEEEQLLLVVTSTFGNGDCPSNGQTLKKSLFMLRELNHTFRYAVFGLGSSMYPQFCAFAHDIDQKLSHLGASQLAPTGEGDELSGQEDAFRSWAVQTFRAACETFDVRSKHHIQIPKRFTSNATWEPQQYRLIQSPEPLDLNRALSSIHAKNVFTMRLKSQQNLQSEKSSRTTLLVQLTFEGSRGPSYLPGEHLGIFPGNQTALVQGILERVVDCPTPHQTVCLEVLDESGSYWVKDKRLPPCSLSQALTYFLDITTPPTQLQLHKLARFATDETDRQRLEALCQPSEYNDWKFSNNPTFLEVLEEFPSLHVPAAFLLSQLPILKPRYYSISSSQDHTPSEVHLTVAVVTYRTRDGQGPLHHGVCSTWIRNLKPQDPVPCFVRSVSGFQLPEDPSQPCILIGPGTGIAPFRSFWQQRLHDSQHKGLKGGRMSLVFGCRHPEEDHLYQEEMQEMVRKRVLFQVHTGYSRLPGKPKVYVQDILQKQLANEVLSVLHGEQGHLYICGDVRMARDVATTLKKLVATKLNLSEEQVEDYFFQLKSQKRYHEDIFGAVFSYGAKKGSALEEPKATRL

## CNC(=N)NCCC[C@H](N)C(=O)O [L-NMA, N^G-methyl-L-arginine]
[1]
  Cu(FL5) fluorescence response in the presence of iNOS inhibitor: notably weaker fluorescence response

## o-diaminofluorescein [DAF-2, reference compound]
[2]; over a period of 1 h
  fluorescence in the presence of NO and the absence of O2: unchanged

## CC(=O)Oc1ccc2c(c1)Oc1cc(OC(C)=O)ccc1C21OC(=O)c2cc(N)c(N)cc21 [DAF-2 DA, o-diaminofluorescein diacetate, reference compound]
[3]; 30 min after activation of cNOS
  fluorescence change of treated cells after activation of cNOS: only a slight fluorescence increase

## N=C(NCCC[C@H](N)C(=O)O)N[N+](=O)[O-] [L-NNA, N^G-nitro-L-arginine]
[4]
  Cu(FL5) fluorescence response in the presence of cNOS inhibitor: notably weaker fluorescence response

## Cc1ccc2cccc(N(Cc3c(O)ccc4c(-c5ccccc5C(=O)O)c5cc(Cl)c(=O)cc-5oc34)N=O)c2n1 [FL5-NO, 2-{2-chloro-6-hydroxy-5-[((2-methylquinolin-8-yl)(nitroso)amino)-methyl]-3-oxo-3H-xanthen-9-yl}-benzoic acid]
[5]
  stability at pH 7.0: stable for several days

## Cc1ccc2cccc(NCc3c(O)ccc4c(-c5ccccc5C(=O)O)c5cc(Cl)c(=O)cc-5oc34)c2n1 [FL5, 2-{2-chloro-6-hydroxy-5-[(2-methyl-quinolin-8-ylamino)-methyl]-3-oxo-3H-xanthen-9-yl}-benzoic acid]
[6]
  fluorescence diminished upon introduction of an equimolar quantity of CuCl2: 18±3%
[2]; no Cu(II): copper-free FL5 or FL5 with Cu(I)
  increase in fluorescence when treated with excess NO over 30 min: 1.5±0.2 fold
[3]; over a period of 25 min
  fluorescence change in stimulated SK—N—SH cells in the absence of Cu(II) ion: no fluorescence increase
[7]
  turn-on fluorescence in stimulated Raw 264.7 cells without Cu(II) ion: turn-on fluorescence emission was not observed
